# Target: T1, His6-WbbZ (WbbZ pyruvyltransferase) (Klebsiella pneumoniae, UniProt A0A0C4KUT2)
# T1 construct: His6-tagged, expressed in E. coli TOP10, Ni-NTA purified
# Test: PAGE of reaction products; MS and NMR
# Assay type: biochemical
# Settings: pyruvyl donor, 10 mM PEP; acceptor formed by WbbY; pH 7.5, 10 mM MgCl2, 30 °C
# T1 sequence (A0A0C4KUT2 entry or part of it): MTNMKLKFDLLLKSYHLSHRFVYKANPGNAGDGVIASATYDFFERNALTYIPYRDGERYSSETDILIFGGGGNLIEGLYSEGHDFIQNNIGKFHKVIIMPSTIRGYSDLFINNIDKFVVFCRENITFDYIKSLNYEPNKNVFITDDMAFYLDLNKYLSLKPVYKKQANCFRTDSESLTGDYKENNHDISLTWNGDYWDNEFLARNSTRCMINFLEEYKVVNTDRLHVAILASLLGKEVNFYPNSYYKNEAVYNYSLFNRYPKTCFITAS
compound,measurement,value
C=C(OP(=O)(O)O)C(=O)O [PEP],PAGE of reaction products; MS and NMR,phosphoenolpyruvate (PEP)-dependent reduction of the size of the reaction products
